Results published in publication PMC3281193, “Quinol derivatives as potential trypanocidal agents” (Bioorganic & Medicinal Chemistry, 2012).
Where two headings read alike, the source gives them in different places.

Legend:
[1] = system: blood stream form T. brucei; test: 96-well HTS assay against blood stream form T. brucei; assay type: cell-based, Trypanosoma brucei; conditions: for EC50: Trypanosoma brucei
Description: (§1) The 96-well HTS assays against blood stream form T. brucei[38] and MRC5 cells were carried out as reported previously.[39] The manual assays performed on the AT1 double knock out T. brucei and wild type T. brucei were conducted as described by Jones et al.[39]

[2] = system: MRC5 cells; test: cells; assay type: cell-based, human; conditions: Homo sapiens, MRC5, read-out: EC50 MRC5 (SD, n)
Description: as §1

[3] = system: blood stream form T. brucei; design: method as in PMID 21212280; conditions: cited from earlier work; for EC50: Table 1, data taken from Konig et al.
[4] = system: T. brucei AT1 KO; test: 96-well manual assay on AT1 double knock out T. brucei (P2 transporter knock out); assay type: cell-based, Trypanosoma brucei; conditions: for EC50: Trypanosoma brucei, read-out: T. brucei AT1 KO EC50 (SD); for Cell line selectivity: EC50 (AT1 KO)/EC50 (WT): manual assay
Description: In order to determine if analogues 35, 38, 44 and 46 are substrates for the P2 transporter they were assayed against a line of T. brucei lacking the gene which codes for the P2 transporter (Table 2).[33] […] Compounds 8 and 19,[25] which contain the triazole and indolyl quinol pharmacophore respectively, but lack a P2 motif, served as negative controls.
as §1

[5] = in vitro; assay type: cell-based, human; conditions: human
Description: as §1

[6] = system: wild type T. brucei; test: 96-well manual assay on wild type T. brucei; assay type: cell-based; conditions: Trypanosoma brucei, read-out: T. brucei EC50 (SD)
Description: In order to determine if analogues 35, 38, 44 and 46 are substrates for the P2 transporter they were assayed against a line of T. brucei lacking the gene which codes for the P2 transporter (Table 2).[33] If the analogues are transported they would be expected to show greater potency against wild type T. brucei than against the P2 knock out line. Compounds 8 and 19,[25] which contain the triazole and indolyl quinol pharmacophore respectively, but lack a P2 motif, served as negative controls.
as §1

[7] = system: MRC5 cells; design: method as in PMID 21212280; conditions: Table 1; data taken from Konig et al.; cited from earlier work
[8] = Table 1, arithmetic mean of independent determinations, read-out: EC50 T. brucei (SD, n)
[9] = Table 2, 96-well HTS assay, blood stream form T. b. brucei, read-out: T. brucei EC50 (SD, n)
[10] = Table 2, 96-well manual assay, wild type, weighted mean of three independent experiments

C#CC1(O)C=CC(=O)C=C1 [Compound 1, 4-Ethynyl-4-hydroxycyclohexa-2,5-dienone]
EC50 [1, 8]: 2000 nM | EC50 [2]: 2100 nM

CCOC(=O)Nc1ccc(S(=O)(=O)n2c(C3(O)C=CC(=O)C=C3)cc3ccccc32)cc1 [Compound 17]
EC50 [1, 8]: 50 nM | EC50 [2]: 86 nM

Cc1ccc(S(=O)(=O)n2c(C3(O)C=CC(=O)C=C3)cc3ccncc32)cc1 [Compound 16]
activity against T. brucei in words [1]: low nanomolar range | EC50 [1, 8]: 26 nM | EC50 [2]: 44 nM

O=C1C=CC(O)(c2cc3ccccc3n2S(=O)(=O)c2ccc(CCC(=O)N3CCOCC3)cc2)C=C1 [Compound 21]
EC50 [1, 8]: 36 nM | EC50 [2]: 67 nM

O=C1C=CC(O)(c2nc3ccccc3s2)C(Cl)=C1 (centres unmarked) [Compound 6]
activity against T. brucei in words [1]: low nanomolar range | EC50 [1, 8]: 46 nM | EC50 [2]: 55 nM

O=C1C=CC(O)(c2cc3ccc(F)cc3n2S(=O)(=O)c2ccccc2)C=C1 [Compound 13]
EC50 [3]: 100 nM

O=C1C=CC(O)(c2cc3ccccc3n2S(=O)(=O)c2ccc(CCCO)cc2)C=C1 [Compound 20]
EC50 [1, 8]: 24 nM | EC50 [2]: 51 nM

O=C1C=CC(O)(c2cc3cnccc3n2S(=O)(=O)c2ccccc2)C=C1 [Compound 15]
activity against T. brucei in words [1]: low nanomolar range | EC50 [1, 8]: 22 nM | EC50 [2]: 41 nM

CC(=O)NCCc1ccc(S(=O)(=O)n2c(C3(O)C=CC(=O)C=C3)cc3ccccc32)cc1 [Compound 18]
activity against T. brucei in words [1]: low nanomolar range | EC50 [1, 8]: 12 nM | EC50 [2]: 36 nM

O=C1C=CC(O)(c2cn(-c3ccc4ncsc4c3)nn2)C=C1 [Compound 10]
activity against T. brucei in words [1]: low nanomolar range | EC50 [1, 8]: 27 nM | EC50 [2]: 69 nM

Nc1nc(N)nc(-n2cc(C3(O)C=CC(=O)C=C3)nn2)n1 [Compound 38, 4-(1-(4,6-Diamino-1,3,5-triazin-2-yl)-1H-1,2,3-triazol-4-yl)-4-hydroxycyclohexa-2,5-dienone]
EC50 [1, 9]: 6200 nM | EC50 [4]: 3800 nM | Cell line selectivity: EC50 (AT1 KO)/EC50 (WT) [4]: 1.0 | EC50 [5]: > 50000 nM | EC50 [6, 10]: 3800 nM

N=C(N)c1ccc(-n2cc(C3(O)C=CC(=O)C=C3)nn2)cc1 [Compound 35, 4-(4-(1-Hydroxy-4-oxocyclohexa-2,5-dienyl)-1H-1,2,3-triazol-1-yl)benzimidamide]
EC50 [1, 9]: 11000 nM | EC50 [4]: 6000 nM | Cell line selectivity: EC50 (AT1 KO)/EC50 (WT) [4]: 1.2 | EC50 [5]: > 50000 nM | EC50 [6, 10]: 5000 nM

N=C(N)c1ccc(/N=N/Nc2ccc(C(=N)N)cc2)cc1 [Berenil, reference compound]
EC50 [4]: 330 nM | Cell line selectivity: EC50 (AT1 KO)/EC50 (WT) [4]: 11 | EC50 [6, 10]: 31 nM

CN1CCN(CCCc2ccc(S(=O)(=O)n3c(C4(O)C=CC(=O)C=C4)cc4ccccc43)cc2)CC1 [Compound 24]
EC50 [1, 8]: 16 nM | EC50 [2]: 50 nM

O=C1C=CC(O)(c2cn(CCC(=O)Nc3ccccc3)nn2)C=C1 [Compound 12, 3-(4-(1-Hydroxy-4-oxocyclohexa-2,5-dien-1-yl)-1H-1,2,3-triazol-1-yl)-N-phenylpropanamide]
EC50 [1, 8]: 2700 nM | EC50 [2]: 18000 nM

Nc1nc(N)nc(NCCCNC(=O)CCc2ccc(S(=O)(=O)n3c(C4(O)C=CC(=O)C=C4)cc4ccccc43)cc2)n1 [Compound 46, N-(3-((4,6-Diamino-1,3,5-triazin-2-yl)amino)propyl)-3-(4-((2-(1-hydroxy-4-oxocyclohexa-2,5-dien-1-yl)-1H-indol-1-yl)sulfonyl)phenyl)propanamide]
EC50 [1, 9]: 3200 nM | EC50 [4]: 1800 nM | Cell line selectivity: EC50 (AT1 KO)/EC50 (WT) [4]: 1.1 | EC50 [5]: 18000 nM | EC50 [6, 10]: 1700 nM

COC(=O)CCc1ccc(S(=O)(=O)n2c(C3(O)C=CC(=O)C=C3)cc3ccccc32)cc1 [Compound 19, Methyl 3-(4-((2-(1-hydroxy-4-oxocyclohexa-2,5-dien-1-yl)-1H-indol-1-yl)sulfonyl)phenyl) propanoate]
EC50 [1, 8]: 160 nM | EC50 [1, 9]: 160 nM | EC50 [4]: 80 nM | Cell line selectivity: EC50 (AT1 KO)/EC50 (WT) [4]: 1.3 | EC50 [5]: 280 nM | EC50 [2]: 280 nM | EC50 [6, 10]: 60 nM

CC(=O)OC[C@H]1O[C@@H](n2cc(C3(O)C=CC(=O)C=C3)nn2)[C@H](OC(C)=O)[C@@H](OC(C)=O)[C@H]1OC(C)=O [Compound 11]
EC50 [1, 8]: 10000 nM | EC50 [2]: > 50000 nM

Nc1nc(N)nc(Nc2ccc([As]3SCC(CO)S3)cc2)n1 (centres unmarked) [melarsoprol, reference compound]
EC50 ([1]; read-out: EC50 against T. brucei): 33 nM

Oc1ccc(-c2nc3ccccc3s2)cc1 [Compound 7]
EC50 [7]: > 50000 nM | EC50 [3]: > 50000 nM | activity against T. brucei in words [3]: inactive

CS(=O)(=O)c1ccc(S(=O)(=O)n2c(C3(O)C=CC(=O)C=C3)cc3ccccc32)cc1 [Compound 25]
EC50 [1, 8]: 24 nM | EC50 [2]: 39 nM

COc1ccc(Cn2cc(C3(O)C=CC(=O)C=C3)nn2)cc1 [Compound 9]
EC50 [1, 8]: 160 nM | EC50 [2]: 450 nM

CN1CCN(C(=O)CCc2ccc(S(=O)(=O)n3c(C4(O)C=CC(=O)C=C4)cc4ccccc43)cc2)CC1 [Compound 22]
EC50 [1, 8]: 18 nM | EC50 [2]: 52 nM

O=C1C=CC(O)(c2cc3ccccc3n2S(=O)(=O)c2ccc(CCC(=O)O)cc2)C=C1 [Compound 42, 3-(4-((2-(1-Hydroxy-4-oxocyclohexa-2,5-dien-1-yl)-1H-indol-1-yl)sulfonyl)phenyl)propanoic acid]
EC50 [1, 9]: 740 nM | EC50 [5]: 3300 nM

N=C(N)c1ccc(OCCCCCOc2ccc(C(=N)N)cc2)cc1 [pentamidine, reference compound]
EC50 ([1]; reference drugs assayed under identical conditions, read-out: EC50 against T. brucei): 8 nM

Nc1nc(N)nc(NCCCOC(=O)CCc2ccc(S(=O)(=O)n3c(C4(O)C=CC(=O)C=C4)cc4ccccc43)cc2)n1 [Compound 44, 3-((4,6-Diamino-1,3,5-triazin-2-yl)amino)propyl 3-(4-((2-(1-hydroxy-4-oxocyclohexa-2,5-dien-1-yl)-1H-indol-1-yl)sulfonyl)phenyl)propanoate]
EC50 [1, 9]: 350 nM | EC50 [4]: 260 nM | Cell line selectivity: EC50 (AT1 KO)/EC50 (WT) [4]: 1.0 | EC50 [5]: 950 nM | EC50 [6, 10]: 250 nM

O=C1C=CC(O)(C#Cc2ccc(CC(=O)Nc3ccccc3)cc2)C=C1 [Compound 3, 2-(4-((1-Hydroxy-4-oxocyclohexa-2,5-dien-1-yl)ethynyl)phenyl)-N-phenylacetamide]
EC50 [1, 8]: 2200 nM | EC50 [2]: 670 nM

O=C1C=CC(O)(c2cc3ccccc3n2S(=O)(=O)c2ccc(CCCN3CCOCC3)cc2)C=C1 [Compound 23]
EC50 [1, 8]: 26 nM | EC50 [2]: 79 nM

COc1ccc(-n2cc(C3(O)C=CC(=O)C=C3)nn2)cc1 [Compound 8]
EC50 [4]: 74 nM | Cell line selectivity: EC50 (AT1 KO)/EC50 (WT) [4]: 0.78 | EC50 [6]: 95 nM
